Assay results taken from ChEMBL document CHEMBL5214954, “Identification of PI3K/HDAC Dual-targeted inhibitors with subtype selectivity as potential therapeutic agents against solid Tumors: Building HDAC6 potency in a Quinazolinone-based PI3Kδ-selective template” (Bioorg Med Chem, 2022).

Columns and labels:
[1] = target: T1, Phosphatidylinositol 4,5-bisphosphate 3-kinase catalytic subunit delta isoform (Homo sapiens, UniProt O00329); assay: Inhibition of PI3Kdelta (unknown origin) measured by ADP-Glo assay
T1 sequence (O00329 whole entry): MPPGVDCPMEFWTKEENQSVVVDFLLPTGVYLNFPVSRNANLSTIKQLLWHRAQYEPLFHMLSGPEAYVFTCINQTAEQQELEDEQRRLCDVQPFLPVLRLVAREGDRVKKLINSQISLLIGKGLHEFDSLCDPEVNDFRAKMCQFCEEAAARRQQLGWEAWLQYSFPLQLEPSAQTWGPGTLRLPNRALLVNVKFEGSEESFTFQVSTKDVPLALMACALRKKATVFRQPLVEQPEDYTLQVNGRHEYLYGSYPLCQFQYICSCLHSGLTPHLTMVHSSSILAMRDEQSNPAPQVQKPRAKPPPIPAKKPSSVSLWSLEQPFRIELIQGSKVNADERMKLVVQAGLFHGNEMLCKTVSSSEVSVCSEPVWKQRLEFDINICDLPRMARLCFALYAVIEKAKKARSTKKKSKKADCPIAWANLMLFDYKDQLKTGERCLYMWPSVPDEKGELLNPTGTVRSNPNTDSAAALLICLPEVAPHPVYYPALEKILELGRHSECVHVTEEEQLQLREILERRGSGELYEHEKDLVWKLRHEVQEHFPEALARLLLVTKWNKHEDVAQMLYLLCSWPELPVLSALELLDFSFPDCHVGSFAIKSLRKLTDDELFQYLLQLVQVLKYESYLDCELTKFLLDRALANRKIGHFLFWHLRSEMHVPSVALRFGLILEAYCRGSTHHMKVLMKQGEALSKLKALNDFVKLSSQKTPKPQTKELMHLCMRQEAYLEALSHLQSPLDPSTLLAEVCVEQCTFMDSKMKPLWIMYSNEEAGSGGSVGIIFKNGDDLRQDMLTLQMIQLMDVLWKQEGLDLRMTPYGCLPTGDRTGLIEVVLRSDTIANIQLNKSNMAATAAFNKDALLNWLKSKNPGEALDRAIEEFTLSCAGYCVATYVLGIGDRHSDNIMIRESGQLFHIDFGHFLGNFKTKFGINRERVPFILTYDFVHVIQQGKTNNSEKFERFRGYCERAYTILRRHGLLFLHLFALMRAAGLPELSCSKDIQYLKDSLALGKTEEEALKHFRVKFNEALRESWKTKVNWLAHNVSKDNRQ

[2] = target: T2, Protein deacetylase HDAC6 (Homo sapiens, UniProt Q9UBN7)
T2 sequence (Q9UBN7 whole entry): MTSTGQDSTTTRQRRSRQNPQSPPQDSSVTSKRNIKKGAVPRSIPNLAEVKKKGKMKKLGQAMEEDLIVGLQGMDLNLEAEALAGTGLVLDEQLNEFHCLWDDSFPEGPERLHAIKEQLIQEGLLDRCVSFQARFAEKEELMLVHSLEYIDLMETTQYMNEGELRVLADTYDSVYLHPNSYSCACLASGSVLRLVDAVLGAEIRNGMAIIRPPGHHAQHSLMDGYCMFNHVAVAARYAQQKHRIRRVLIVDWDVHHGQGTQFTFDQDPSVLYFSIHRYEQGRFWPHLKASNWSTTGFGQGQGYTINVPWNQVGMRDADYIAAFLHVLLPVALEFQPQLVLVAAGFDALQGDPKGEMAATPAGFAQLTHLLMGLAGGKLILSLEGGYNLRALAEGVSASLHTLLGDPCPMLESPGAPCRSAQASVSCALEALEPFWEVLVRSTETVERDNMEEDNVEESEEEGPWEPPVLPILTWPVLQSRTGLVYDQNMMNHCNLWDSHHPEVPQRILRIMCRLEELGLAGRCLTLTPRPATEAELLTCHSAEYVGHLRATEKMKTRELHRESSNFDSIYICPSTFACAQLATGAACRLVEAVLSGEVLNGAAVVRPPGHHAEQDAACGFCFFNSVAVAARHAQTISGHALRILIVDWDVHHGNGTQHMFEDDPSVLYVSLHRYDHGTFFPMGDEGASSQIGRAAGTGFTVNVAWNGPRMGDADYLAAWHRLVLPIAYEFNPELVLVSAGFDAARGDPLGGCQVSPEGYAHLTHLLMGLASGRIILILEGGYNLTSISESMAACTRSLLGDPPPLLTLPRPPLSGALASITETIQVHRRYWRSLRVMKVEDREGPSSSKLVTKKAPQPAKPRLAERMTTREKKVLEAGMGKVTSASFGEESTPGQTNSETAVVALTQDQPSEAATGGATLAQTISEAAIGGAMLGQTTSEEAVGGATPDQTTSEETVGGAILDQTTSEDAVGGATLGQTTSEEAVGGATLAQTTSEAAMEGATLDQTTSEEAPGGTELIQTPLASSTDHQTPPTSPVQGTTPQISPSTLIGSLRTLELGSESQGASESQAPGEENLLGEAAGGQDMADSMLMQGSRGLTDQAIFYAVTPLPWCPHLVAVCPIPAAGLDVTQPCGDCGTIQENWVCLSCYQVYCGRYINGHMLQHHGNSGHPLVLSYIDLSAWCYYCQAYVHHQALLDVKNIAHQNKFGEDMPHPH
Description: Inhibition of HDAC6 (unknown origin) measured by fluorescence based assay

KM12 = assay: Antiproliferative activity against human KM12 cells incubated for 72 hrs by CCK-8 assay; assay type: functional, cell-based; settings: KM12, 72 h
T47D = assay: Antiproliferative activity against human T47D cells incubated for 72 hrs by CCK-8 assay; assay type: functional, cell-based
[3] = Cytotoxicity against HUVEC cells incubated for 72 hrs by CCK-8 assay; settings: human
SU-DHL-6 = assay: Antiproliferative activity against human SU-DHL-6 cells incubated for 72 hrs by CCK-8 assay; assay type: functional, cell-based; settings: SU-DHL-6, 72 h
HCT-116 = assay: Antiproliferative activity against human HCT-116 cells incubated for 72 hrs by CCK-8 assay; assay type: functional, cell-based; settings: HCT-116, 72 h
Histone deacetylase 1 = Histone deacetylase 1 (Homo sapiens, UniProt Q13547)
Chain of Histone deacetylase 1 (Q13547 whole entry): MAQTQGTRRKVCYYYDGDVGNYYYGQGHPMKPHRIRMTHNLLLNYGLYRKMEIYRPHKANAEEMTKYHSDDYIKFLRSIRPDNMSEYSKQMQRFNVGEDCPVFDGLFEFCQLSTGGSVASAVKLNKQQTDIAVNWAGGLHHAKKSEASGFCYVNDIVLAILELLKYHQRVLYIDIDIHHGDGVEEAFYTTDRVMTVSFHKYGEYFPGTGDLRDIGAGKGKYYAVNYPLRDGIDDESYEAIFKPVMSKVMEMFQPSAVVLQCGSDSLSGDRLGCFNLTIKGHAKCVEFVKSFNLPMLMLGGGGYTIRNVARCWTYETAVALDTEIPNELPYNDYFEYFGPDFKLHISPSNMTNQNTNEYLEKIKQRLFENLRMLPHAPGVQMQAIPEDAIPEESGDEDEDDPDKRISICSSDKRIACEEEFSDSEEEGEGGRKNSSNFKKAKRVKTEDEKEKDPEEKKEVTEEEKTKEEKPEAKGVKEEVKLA
Description: Inhibition of HDAC1 (unknown origin) measured by fluorescence based assay

Compound N#Cc1c(N)nc(N)nc1N1C[C@H](OC(=O)NCc2ccc(C(=O)NO)cc2)C[C@H]1c1nc2cccc(F)c2c(=O)n1-c1ccccc1 has an IC50 [1] of 24 nM.
With N#Cc1c(N)nc(N)nc1N1CCC[C@H]1c1nc(NCc2ccc(C(=O)NO)cc2)c2c(Cl)cccc2n1 the IC50 [2] was 267 nM.
With O=C(CCCCCCNC(=O)c1cnc(N(c2ccccc2)c2ccccc2)nc1)NO [RICOLINOSTAT] the IC50 (KM12) was 2150 nM, the IC50 (T47D) was 710 nM and the IC50 at 72 h [3] was 13600 nM. It also gave an IC50 (SU-DHL-6) of 830 nM and an IC50 (HCT-116) of 1850 nM.
Work on N#Cc1c(N)nc(N)nc1N1CCC[C@H]1c1nc2cccc(Cl)c2c(=O)n1Cc1ccc(C(=O)NO)cc1 yielded an IC50 [2] of 280 nM.
In the case of Cn1c([C@@H]2C[C@@H](OC(=O)NCc3ccc(C(=O)NO)cc3)CN2c2nc(N)nc(N)c2C#N)nc2cccc(Cl)c2c1=O, the IC50 (Histone deacetylase 1) is reported as 102 nM, the IC50 [1] is reported as 18 nM and the IC50 [2] is reported as 27 nM.
Compound N#Cc1c(N)nc(N)nc1N1CC2(CC2)C[C@H]1c1nc2cccc(Cl)c2c(=O)n1Cc1ccc(C(=O)NO)cc1 has an IC50 [1] of 6.1 nM and an IC50 [2] of 331 nM.
CC[C@H](Nc1ncnc2[nH]cnc12)c1nc2cccc(F)c2c(=O)n1Cc1ccc(C(=O)NO)cc1 gave an IC50 (Histone deacetylase 1) of 244 nM, an IC50 [1] of 99 nM and an IC50 [2] of 45 nM.
Compound N#Cc1c(N)nc(N)nc1N1C[C@H](OC(=O)NCc2ccc(C(=O)NO)cc2)C[C@H]1c1nc2cccc(Cl)c2c(=O)n1-c1ccccc1 has an IC50 (Histone deacetylase 1) of 271 nM, an IC50 [1] of 1.6 nM and an IC50 [2] of 87 nM.
For N#Cc1c(N)nc(N)nc1N1CC2(CC2)C[C@H]1c1nc2cccc(Cl)c2c(=O)n1Cc1cc(C(=O)NO)no1, the IC50 [1] was 6.9 nM and the IC50 [2] was 604 nM.
Compound O=C(NO)c1ccc(Cn2c([C@@H]3CC4(CC4)CN3c3ncnc4[nH]cnc34)nc3cccc(F)c3c2=O)cc1 has an IC50 (Histone deacetylase 1) of 360 nM, an IC50 [1] of 136 nM and an IC50 [2] of 28 nM.
N#Cc1c(N)nc(N)nc1N1CC2(CC2)C[C@H]1c1nc2cccc(F)c2c(=O)n1Cc1ccc(C(=O)NO)s1 showed an IC50 (Histone deacetylase 1) of 82 nM, an IC50 [1] of 20 nM and an IC50 [2] of 32 nM.
Compound Cn1c([C@@H]2C[C@@H](OCc3ccc(C(=O)NO)s3)CN2c2nc(N)nc(N)c2C#N)nc2cccc(Cl)c2c1=O has an IC50 (Histone deacetylase 1) of 88 nM, an IC50 [1] of 42 nM and an IC50 [2] of 13 nM.
Work on N#Cc1c(N)nc(N)nc1N1C[C@@H](OC(=O)NCc2ccc(C(=O)NO)cc2)C[C@H]1c1nc2cccc(Cl)c2c(=O)n1-c1ccccc1 yielded an IC50 [1] of 6.8 nM and an IC50 [2] of 168 nM.
For CC[C@H](Nc1ncnc2[nH]cnc12)c1nc2cccc(F)c2c(=O)n1CCCCCC(=O)NO, the IC50 (Histone deacetylase 1) was 85 nM, the IC50 [1] was 36 nM and the IC50 [2] was 121 nM.
Compound N#Cc1c(N)nc(N)nc1N1CC2(CC2)C[C@H]1c1nc(NCCc2ccc(C(=O)NO)cc2)c2c(Cl)cccc2n1 has an IC50 [2] of 219 nM.
N#Cc1c(N)nc(N)nc1N1CC2(CC2)C[C@H]1c1nc2cccc(F)c2c(=O)n1Cc1ccc(C(=O)NO)cc1 gave an IC50 (Histone deacetylase 1) of 287 nM, an IC50 [1] of 33 nM and an IC50 [2] of 27 nM.
For CC[C@H](Nc1ncnc2[nH]cnc12)c1nc2cccc(F)c2c(=O)n1-c1ccccc1 [IDELALISIB], the IC50 (KM12) was 960 nM, the IC50 (T47D) was 510 nM and the IC50 at 72 h [3] was 38200 nM. For the same compound, the IC50 (SU-DHL-6) was 53 nM and the IC50 (HCT-116) was 2960 nM.
Work on Cn1c([C@@H]2C[C@@H](OC(=O)NCCc3ccc(C(=O)NO)cc3)CN2c2nc(N)nc(N)c2C#N)nc2cccc(Cl)c2c1=O yielded an IC50 (Histone deacetylase 1) of 288 nM, an IC50 [1] of 22 nM and an IC50 [2] of 36 nM.
Compound N#Cc1c(N)nc(N)nc1N1CCC[C@H]1c1nc2cccc(Cl)c2c(=O)n1Cc1ccc(C(=O)NO)s1 has an IC50 (Histone deacetylase 1) of 111 nM and an IC50 [2] of 67 nM.
N#Cc1c(N)nc(N)nc1N1CC2(CC2)C[C@H]1c1nc(NCc2ccc(C(=O)NO)cc2)c2c(Cl)cccc2n1 gave an IC50 [2] of 398 nM.
CN(Cc1ccc(C(=O)NO)cc1)C(=O)O[C@@H]1C[C@@H](c2nc3cccc(Cl)c3c(=O)n2C)N(c2nc(N)nc(N)c2C#N)C1 gave an IC50 (Histone deacetylase 1) of 260 nM, an IC50 [1] of 42 nM and an IC50 [2] of 11 nM.
Work on Cn1c([C@@H]2C[C@@H](OCc3ccc(C(=O)NO)cc3)CN2c2nc(N)nc(N)c2C#N)nc2cccc(Cl)c2c1=O yielded an IC50 (Histone deacetylase 1) of 72 nM, an IC50 [1] of 75 nM and an IC50 [2] of 13 nM.
Compound Cn1c([C@@H]2C[C@@H](OC(=O)NCc3ccc(C(=O)NO)s3)CN2c2nc(N)nc(N)c2C#N)nc2cccc(Cl)c2c1=O has an IC50 (Histone deacetylase 1) of 182 nM, an IC50 [1] of 16 nM and an IC50 [2] of 43 nM.
For CC[C@H](Nc1nc(N)nc(N)c1C#N)c1nc2cccc(Cl)c2c(=O)n1Cc1ccc(C(=O)NO)s1, the IC50 (Histone deacetylase 1) was 198 nM and the IC50 [2] was 45 nM.
Compound C[C@H](Nc1nc(N)nc(N)c1C#N)c1nc2cccc(Cl)c2c(=O)n1Cc1ccc(C(=O)NO)s1 has an IC50 (Histone deacetylase 1) of 214 nM and an IC50 [2] of 66 nM.
